From patent publication US20260062412A1, “NITROGEN-CONTAINING HETEROCYCLIC COMPOUND HAVING MYT1 INHIBITORY ACTIVITY” (CHUGAI SEIYAKU KABUSHIKI KAISHA, priority 2023, published 2026)

Columns and labels:
[1] = target: T1, MYT1 protein (Homo sapiens (Human), UniProt Q99640); assay: Test for binding to ATP binding site of MYT1 (Kinase Tracer 178 / Eu-Anti-GST antibody TR-FRET); details: ATP binding site of MYT1, 30 minutes at room temperature
[2] = tested on: LU65; assay: Cytotoxicity test with pemetrexed upon addition of each example compound (CellTiter-Glo); format: cell-based, human; details: combination with pemetrexed, LU65 cells, 7 days; maximum value, at the MYT1 inhibitor and pemetrexed concentrations
Outline: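 LU65 lung cancer cells (RB1 S82* truncation, reduced RB1 function) in RPMI-1640/10% FBS were treated with pemetrexed plus each compound over concentration series, 7 days at 37 °C. ATP measured by CellTiter-Glo luminescence; survival relative to DMSO after blank subtraction, cytotoxicity = 100% minus survival.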

[3] = target: T1, MYT1 protein; assay: MYT1 kinase activity inhibition test (ELISA, phosphorylation of Y15 of CDK1); format: biochemical; details: phosphorylation level of Y15 of CDK1 protein caused by MYT1 protein, 60 minutes
Outline: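 Recombinant human MYT1 (5 nM working solution) was incubated 60 min at room temperature with compound and ATP (83.3 μM working solution) on a CDK1-coated ELISA plate. CDK1 Y15 phosphorylation was detected with HRP anti-phosphotyrosine, read as A450 minus A590. Inhibition was normalised to no-compound (100%) and no-enzyme (0%) signals to derive IC50.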

T1 sequence (Q99640 whole entry): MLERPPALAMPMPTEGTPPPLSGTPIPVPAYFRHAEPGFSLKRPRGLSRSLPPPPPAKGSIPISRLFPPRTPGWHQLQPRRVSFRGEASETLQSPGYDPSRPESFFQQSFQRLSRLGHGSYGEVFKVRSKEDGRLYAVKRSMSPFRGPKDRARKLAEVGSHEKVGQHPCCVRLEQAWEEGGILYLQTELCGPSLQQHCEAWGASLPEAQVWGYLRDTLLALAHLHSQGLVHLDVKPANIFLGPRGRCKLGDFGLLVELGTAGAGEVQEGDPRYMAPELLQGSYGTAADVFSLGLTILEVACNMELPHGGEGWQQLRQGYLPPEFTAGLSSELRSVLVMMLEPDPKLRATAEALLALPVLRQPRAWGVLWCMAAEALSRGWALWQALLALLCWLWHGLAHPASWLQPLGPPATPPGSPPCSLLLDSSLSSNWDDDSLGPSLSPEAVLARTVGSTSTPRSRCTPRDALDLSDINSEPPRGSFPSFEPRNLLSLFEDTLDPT

Compound	IC50 [1]	Bliss Score (Max) [2]	HSA Score (MAX) [2]	IC50 [3]
CCOc1cc2c(-c3cc(F)c(F)c4[nH]ncc34)c(N)c(=O)[nH]c2c2cccnc12 [Compound C67, 3-Amino-4-(6,7-difluoro-1H-indazol-4-yl)-6-ethoxy-1H-1,7-phenanthrolin-2-one]	2.4 nM	77%	79%	0.1 nM
Nc1c(-c2ccc(F)c3[nH]ncc23)c2cc(C3CCOCC3)c3ncccc3c2[nH]c1=O [Compound C98, 3-Amino-4-(7-fluoro-1H-indazol-4-yl)-6-(oxan-4-yl)-1H-1,7-phenanthrolin-2-one]	2.8 nM	46%	53%	< 4.6 nM
Nc1c(-c2ccc(F)c3[nH]ncc23)c2cc(C3CCC3)c3ccccc3c2[nH]c1=O [Compound B24, 3-Amino-6-cyclobutyl-4-(7-fluoro-1H-indazol-4-yl)-1H-benzo[h]quinolin-2-one]	16 nM	52%	60%	0.62 nM
Nc1c(-c2ccc(F)c3[nH]ncc23)c2cc(Cl)c3ncccc3c2[nH]c1=O [Compound C78, 3-Amino-6-chloro-4-(7-fluoro-1H-indazol-4-yl)-1H-1,7-phenanthrolin-2-one]	3.1 nM	53%	66%	< 0.17 nM
Nc1c(-c2ccc(Cl)c3[nH]ncc23)c2ccc3ncccc3c2[nH]c1=O [Compound C144, 3-Amino-4-(7-chloro-1H-indazol-4-yl)-1H-1,7-phenanthrolin-2-one]	7 nM	39%	47%	0.32 nM
CC#Cc1cc2c(-c3ccc(F)c4[nH]ncc34)c(N)c(=O)[nH]c2c2cccnc12 [Compound C90, 3-Amino-4-(7-fluoro-1H-indazol-4-yl)-6-prop-1-inyl-1H-1,7-phenanthrolin-2-one]	14 nM	50%	60%	0.42 nM
CCc1cc2c(-c3ccc(F)c4[nH]ncc34)c(N)c(=O)[nH]c2c2cccnc12 [Compound C86, 3-Amino-6-ethyl-4-(7-fluoro-1H-indazol-4-yl)-1H-1,7-phenanthrolin-2-one]	4.6 nM	67%	71%	< 0.17 nM
Nc1c(-c2c(F)ccc3[nH]ncc23)c2cc(C3CC3)c3ncccc3c2[nH]c1=O (racemic) [Compound C156, 3-Amino-6-cyclopropyl-4-(5-fluoro-1H-indazol-4-yl)-1H-1,7-phenanthrolin-2-one]	2.1 nM	51%	59%	6.2 nM
Nc1c(-c2ccc(F)c3[nH]ncc23)c2cc(C3CCN(C4CCC4)CC3)c3ncccc3c2[nH]c1=O [Compound C134, 3-Amino-6-(1-cyclobutylpiperidin-4-yl)-4-(7-fluoro-1H-indazol-4-yl)-1H-1,7-phenanthrolin-2-one]	3.6 nM	49%	60%	7.6 nM
CCc1cc2c(-c3ccc(F)c4[nH]ncc34)c(N)c(=O)[nH]c2c2ccccc12 [Compound B23, 3-Amino-6-ethyl-4-(7-fluoro-1H-indazol-4-yl)-1H-benzo[h]quinolin-2-one]	8.3 nM	58%	63%	0.26 nM
Cc1cc2c(-c3cc(F)c(F)c4[nH]ncc34)c(N)c(=O)[nH]c2c2cccnc12 [Compound C190, 3-amino-4-(6,7-difluoro-1H-indazol-4-yl)-6-methyl-1H-1,7-phenanthrolin-2-one]	2.5 nM	48%	66%	0.34 nM
Nc1c(-c2cccc(O)c2)c2cc(C3CC3)c3ccccc3c2[nH]c1=O [Compound B3, 3-Amino-6-cyclopropyl-4-(3-hydroxyphenyl)-1H-benzo[h]quinolin-2-one]	7.3 nM	78%	77%	0.52 nM
Nc1c(-c2ccc(F)c3[nH]ncc23)c2cc([C@H]3CC[C@H](O)CC3)c3ncccc3c2[nH]c1=O [Compound C140, 3-Amino-4-(7-fluoro-1H-indazol-4-yl)-6-((1r, 4r)-4-hydroxycyclohexyl)-1H-1,7-phenanthrolin-2-one]	1.7 nM	73%	76%	< 4.6 nM
